Experimental data reported in the NIST ThermoML archive (doi:10.1016/j.jct.2014.09.020).
Numbers after ± are expanded uncertainties.

Experiments:
[1] = Liquid; for speed of sound: Frequency=4 MHz, Single path-length method; for mass density: Vibrating tube method
[2] = xn = mol fraction of the nth substance listed; conditions: Liquid, x1 = 1; for speed of sound: Frequency=4 MHz, Single path-length method; for mass density: Vibrating tube method

Compound `c1ccc2c(c1)CCCC2` [1,2,3,4-tetrahydronaphthalene] has a speed of sound ([1]; 313.15 K, 100 kPa) of 1413 ± 2 m/s, a mass density ([1]; 313.15 K, 100 kPa) of 952.93 ± 1.2 kg/m3 and a speed of sound ([1]; 313.15 K, 5000 kPa) of 1434 ± 3 m/s. It also gave a speed of sound ([1]; 313.15 K, 10000 kPa) of 1455 ± 3 m/s, a speed of sound ([1]; 313.15 K, 15000 kPa) of 1475 ± 3 m/s and a speed of sound ([1]; 313.15 K, 20000 kPa) of 1495 ± 3 m/s. For the same compound, the speed of sound ([1]; 313.15 K, 25000 kPa) was 1513 ± 3 m/s, the speed of sound ([1]; 323.15 K, 100 kPa) was 1374 ± 2 m/s and the mass density ([1]; 323.15 K, 100 kPa) was 944.99 ± 1.2 kg/m3. The speed of sound ([1]; 323.15 K, 5000 kPa) was 1397 ± 3 m/s, the speed of sound ([1]; 323.15 K, 10000 kPa) was 1419 ± 3 m/s and the speed of sound ([1]; 323.15 K, 15000 kPa) was 1439 ± 3 m/s. For the same compound, the speed of sound ([1]; 323.15 K, 20000 kPa) was 1459 ± 3 m/s, the speed of sound ([1]; 323.15 K, 25000 kPa) was 1480 ± 3 m/s and the speed of sound ([1]; 333.15 K, 100 kPa) was 1335 ± 2 m/s. The mass density ([1]; 333.15 K, 100 kPa) was 937.04 ± 1.2 kg/m3, the speed of sound ([1]; 333.15 K, 5000 kPa) was 1359 ± 3 m/s and the speed of sound ([1]; 333.15 K, 10000 kPa) was 1383 ± 3 m/s. For the same compound, the speed of sound ([1]; 333.15 K, 15000 kPa) was 1402 ± 3 m/s, the speed of sound ([1]; 333.15 K, 20000 kPa) was 1425 ± 3 m/s and the speed of sound ([1]; 333.15 K, 25000 kPa) was 1445 ± 3 m/s.
Work on `CCCCCCCCCC` [decane] yielded a speed of sound ([1]; 313.15 K, 100 kPa) of 1177 ± 2 m/s, a mass density ([1]; 313.15 K, 100 kPa) of 714.87 ± 1 kg/m3 and a speed of sound ([1]; 313.15 K, 5000 kPa) of 1209 ± 2 m/s. For the same compound, the speed of sound ([1]; 313.15 K, 10000 kPa) was 1243 ± 2 m/s, the speed of sound ([1]; 313.15 K, 15000 kPa) was 1274 ± 2 m/s and the speed of sound ([1]; 313.15 K, 20000 kPa) was 1303 ± 2 m/s. For the same compound, the speed of sound ([1]; 313.15 K, 25000 kPa) was 1327 ± 2 m/s, the speed of sound ([1]; 323.15 K, 100 kPa) was 1139 ± 2 m/s and the mass density ([1]; 323.15 K, 100 kPa) was 707.2 ± 1 kg/m3. For the same compound, the speed of sound ([1]; 323.15 K, 5000 kPa) was 1174 ± 2 m/s, the speed of sound ([1]; 323.15 K, 10000 kPa) was 1207 ± 2 m/s and the speed of sound ([1]; 323.15 K, 15000 kPa) was 1238 ± 2 m/s. For the same compound, the speed of sound ([1]; 323.15 K, 20000 kPa) was 1269 ± 2 m/s, the speed of sound ([1]; 323.15 K, 25000 kPa) was 1296 ± 2 m/s and the speed of sound ([1]; 333.15 K, 100 kPa) was 1099 ± 2 m/s. For the same compound, the mass density ([1]; 333.15 K, 100 kPa) was 699.47 ± 1 kg/m3, the speed of sound ([1]; 333.15 K, 5000 kPa) was 1134 ± 2 m/s and the speed of sound ([1]; 333.15 K, 10000 kPa) was 1171 ± 2 m/s. It also gave a speed of sound ([1]; 333.15 K, 15000 kPa) of 1204 ± 2 m/s, a speed of sound ([1]; 333.15 K, 20000 kPa) of 1234 ± 2 m/s and a speed of sound ([1]; 333.15 K, 25000 kPa) of 1264 ± 2 m/s.
`CCCCCCCCCC` [decane] + c1ccc2c(c1)CCCC2 gave a speed of sound ([2]; 313.15 K, 100 kPa) of 1177 ± 2 m/s, a mass density ([2]; 313.15 K, 100 kPa) of 714.87 ± 1 kg/m3 and a speed of sound ([2]; 313.15 K, 5000 kPa) of 1209 ± 2 m/s. The speed of sound ([2]; 313.15 K, 10000 kPa) was 1243 ± 2 m/s, the speed of sound ([2]; 313.15 K, 15000 kPa) was 1274 ± 2 m/s and the speed of sound ([2]; 313.15 K, 20000 kPa) was 1303 ± 2 m/s. The speed of sound ([2]; 313.15 K, 25000 kPa) was 1327 ± 2 m/s, the speed of sound ([2]; 323.15 K, 100 kPa) was 1139 ± 2 m/s and the mass density ([2]; 323.15 K, 100 kPa) was 707.2 ± 1 kg/m3. For the same compound, the speed of sound ([2]; 323.15 K, 5000 kPa) was 1174 ± 2 m/s, the speed of sound ([2]; 323.15 K, 10000 kPa) was 1207 ± 2 m/s and the speed of sound ([2]; 323.15 K, 15000 kPa) was 1238 ± 2 m/s. The speed of sound ([2]; 323.15 K, 20000 kPa) was 1269 ± 2 m/s, the speed of sound ([2]; 323.15 K, 25000 kPa) was 1296 ± 2 m/s and the speed of sound ([2]; 333.15 K, 100 kPa) was 1099 ± 2 m/s. The mass density ([2]; 333.15 K, 100 kPa) was 699.47 ± 1 kg/m3, the speed of sound ([2]; 333.15 K, 5000 kPa) was 1134 ± 2 m/s and the speed of sound ([2]; 333.15 K, 10000 kPa) was 1171 ± 2 m/s. It also gave a speed of sound ([2]; 333.15 K, 15000 kPa) of 1204 ± 2 m/s, a speed of sound ([2]; 333.15 K, 20000 kPa) of 1234 ± 2 m/s and a speed of sound ([2]; 333.15 K, 25000 kPa) of 1264 ± 2 m/s.
`CCCCCCCCCCCCCCCC` [hexadecane] showed a speed of sound ([1]; 313.15 K, 100 kPa) of 1283 ± 2 m/s, a mass density ([1]; 313.15 K, 100 kPa) of 759.55 ± 1 kg/m3 and a speed of sound ([1]; 313.15 K, 5000 kPa) of 1311 ± 2 m/s. The speed of sound ([1]; 313.15 K, 10000 kPa) was 1340 ± 2 m/s, the speed of sound ([1]; 313.15 K, 15000 kPa) was 1366 ± 2 m/s and the speed of sound ([1]; 313.15 K, 20000 kPa) was 1391 ± 2 m/s. The speed of sound ([1]; 313.15 K, 25000 kPa) was 1416 ± 2 m/s, the speed of sound ([1]; 323.15 K, 100 kPa) was 1248 ± 2 m/s and the mass density ([1]; 323.15 K, 100 kPa) was 752.64 ± 1 kg/m3. The speed of sound ([1]; 323.15 K, 5000 kPa) was 1278 ± 2 m/s, the speed of sound ([1]; 323.15 K, 10000 kPa) was 1307 ± 2 m/s and the speed of sound ([1]; 323.15 K, 15000 kPa) was 1335 ± 2 m/s. It also gave a speed of sound ([1]; 323.15 K, 20000 kPa) of 1361 ± 2 m/s, a speed of sound ([1]; 323.15 K, 25000 kPa) of 1387 ± 2 m/s and a speed of sound ([1]; 333.15 K, 100 kPa) of 1212 ± 2 m/s. For the same compound, the mass density ([1]; 333.15 K, 100 kPa) was 745.73 ± 1 kg/m3, the speed of sound ([1]; 333.15 K, 5000 kPa) was 1242 ± 2 m/s and the speed of sound ([1]; 333.15 K, 10000 kPa) was 1273 ± 2 m/s. It also gave a speed of sound ([1]; 333.15 K, 15000 kPa) of 1301 ± 2 m/s, a speed of sound ([1]; 333.15 K, 20000 kPa) of 1328 ± 2 m/s and a speed of sound ([1]; 333.15 K, 25000 kPa) of 1354 ± 2 m/s.
Work on `CCCCCCCCCCCCCCCC` [hexadecane] + c1ccc2c(c1)CCCC2 yielded a speed of sound ([2]; 313.15 K, 100 kPa) of 1283 ± 2 m/s, a mass density ([2]; 313.15 K, 100 kPa) of 759.55 ± 1 kg/m3 and a speed of sound ([2]; 313.15 K, 5000 kPa) of 1311 ± 2 m/s. The speed of sound ([2]; 313.15 K, 10000 kPa) was 1340 ± 2 m/s, the speed of sound ([2]; 313.15 K, 15000 kPa) was 1366 ± 2 m/s and the speed of sound ([2]; 313.15 K, 20000 kPa) was 1391 ± 2 m/s. The speed of sound ([2]; 313.15 K, 25000 kPa) was 1416 ± 2 m/s, the speed of sound ([2]; 323.15 K, 100 kPa) was 1248 ± 2 m/s and the mass density ([2]; 323.15 K, 100 kPa) was 752.64 ± 1 kg/m3. For the same compound, the speed of sound ([2]; 323.15 K, 5000 kPa) was 1278 ± 2 m/s, the speed of sound ([2]; 323.15 K, 10000 kPa) was 1307 ± 2 m/s and the speed of sound ([2]; 323.15 K, 15000 kPa) was 1335 ± 2 m/s. The speed of sound ([2]; 323.15 K, 20000 kPa) was 1361 ± 2 m/s, the speed of sound ([2]; 323.15 K, 25000 kPa) was 1387 ± 2 m/s and the speed of sound ([2]; 333.15 K, 100 kPa) was 1212 ± 2 m/s. The mass density ([2]; 333.15 K, 100 kPa) was 745.73 ± 1 kg/m3, the speed of sound ([2]; 333.15 K, 5000 kPa) was 1242 ± 2 m/s and the speed of sound ([2]; 333.15 K, 10000 kPa) was 1273 ± 2 m/s. For the same compound, the speed of sound ([2]; 333.15 K, 15000 kPa) was 1301 ± 2 m/s, the speed of sound ([2]; 333.15 K, 20000 kPa) was 1328 ± 2 m/s and the speed of sound ([2]; 333.15 K, 25000 kPa) was 1354 ± 2 m/s.
